In patent US20050084500A1, “Growth promoter composition for animals” (priority 2001, published 2005):
Like-named read-outs stand apart in the source and are kept apart here.

Key:
[1] = Influence of Lentinus edodes on the zootechnic performance of poultry (feeding trial); assay type: in vivo, chickens; settings: Lentinus edodes at 0.5% of feed where present; for FCR: feed conversion ratio, chickens, end of trial; for Daily growth: one day old chickens, feed ad libitum
Description: 20×40 one day old chickens were provided with following feeds: control feed, control feeds supplemented with a growth-promoting component, control feed supplemented with 0.5% fungi (Lentinus edodes) and control feed supplemented with a growth-promoting component and with 0.5% fungi (Lentinus edodes). As used herein, the term “control feed” refers to a standard animal feed for meat-producing animals, i.e. feed that can be used in the animal husbandry field and is suitable to be fed to meat-producing animals to supply part or all of the meat-producing animal's nutrient requirements. Water and feed were supplied ad libitum. At the end of the trial, chickens were weighed and feed conversion ratio's were determined (Table 1). Microbial contents in the gastrointestinal tract were determined by plate counting.

[2] = assay type: in vivo; settings: for FCR: feed conversion ratio per trial group; for FCR / Mortality: piglets 7-20 kg; for Mortality: whole trial; for Number of veterinary treatments: sum of all treatments performed on the animals during the total period of the trial; for Daily growth: weaned piglets, 7-20 kg, fed ad libitum
Description: The present example relates to the effects of a composition according to the invention comprising a fungus at and least one growth promoting element on piglet performance of piglets in the phase 7-20 kg.
Commercial available weaning and starter feeds were used. During the first 2 weeks, a weaning feed was given to the piglets. From the third week till the end of the trial, i.e. at an average weight of 20 kg, the piglets received a starter feed. The trial feeds used are illustrated in table 2. During the whole trial period the piglets were fed ad libitum. The piglets under study were 120 weaned barrows and sows, with an age of 28 days at weaning. In the stable, 12 pens were present which contained each 10 piglets. For each trial, 3 replicates of 10 piglets were used. Ventilation and heating was automatically controlled. In each pen, 1 drinking nipple was present for water supply. Piglets were distinguished and weighed individually. They were allocated randomly to the different groups so that the average weight of each group was equal. A total of 120 animals was monitored. The following parameters were monitored during the trial: • the feed intake per trial group (measured at the end of the trial) • the weight of the individual animals (was measured at the beginning and at the end of the trial) • the feed conversion ratio per trial group was calculated • veterinary treatments and • mortality.

Molecule | FCR [1] | Daily growth [1] | FCR [2] | Mortality [2] | Number of veterinary treatments [2] | Daily growth [2]
COC[C@H]1O[C@@H](OC2OC[C@@H]3O[C@]4(O[C@H]3[C@H]2OC(=O)C(C)C)O[C@H](C)[C@@](O)(C(C)=O)[C@@H]2OCO[C@H]24)[C@@H](OC)[C@@H](O)[C@@H]1O[C@@H]1O[C@H](C)[C@H](OC)[C@H](O[C@H]2C[C@@]3(C)OC4(C[C@@H](O)[C@H](O[C@H]5C[C@@H](O)[C@H](OC(=O)c6c(C)c(Cl)c(O)c(Cl)c6OC)[C@@H](C)O5)[C@@H](C)O4)O[C@@H]3[C@@H](C)O2)[C@H]1O (stereo partly drawn) [control + Avilamycin, Avilamycin] | 1.59 | 53.99 g/chicken/day | 1.65 | 3.3% | 25 | 365 g/pig/day
CC[C@@H](C(=O)[C@@H](C)[C@@H](O)[C@H](C)[C@@H]1O[C@@H]([C@@H](CC)C(=O)O)CC[C@@H]1C)[C@H]1O[C@]2(C=C[C@@H](O)[C@]3(CC[C@@](C)([C@H]4CC[C@](O)(CC)[C@H](C)O4)O3)O2)[C@H](C)C[C@@H]1C [control + Salinomycine, Salinomycine] | 1.60 | 54.06 g/chicken/day | 1.70 | 6.6% | 26 | 362 g/pig/day
O=CO [control + formic acid, formic acid] | 1.55 | 52.18 g/chicken/day | 1.69 | 10.0% | 28 | 351 g/pig/day
OP(O)O [control + phophorous acid, phophorous acid] | 1.56 | 52.23 g/chicken/day | 1.69 | 6.6% | 30 | 346 g/pig/day
inulin [control + inulin] | 1.65 | 51.09 g/chicken/day | 1.78 | 10% | 32 | 330 g/pig/day
